Results as given in US7807664B2, “4,4-difluoro-1,2,3,4-tetrahydro-5H-1-benzazepine derivative or salt thereof” (Astella Pharma Inc., priority 2003, dated 2010).

Experiments:
human V2 receptor = biological target: T1, human V2 receptor (Homo sapiens, UniProt P30518); test: V2 Receptor Binding Test; settings: human V2 expression CHO cell membrane, [3H]-vasopressin 0.5 nM, 25° C. 60 minutes; read-out: Affinity for V2 receptor Ki
T1 construct: expressed in transfected cells; host or cells: CHO cells (membrane preparation)
Description: (1) V2 Receptor Binding Test
A human V2 expression CHO cell membrane sample was prepared in accordance with the method of Tahara et al. (British Journal of Pharmacology, Vol. 125, pp. 1463-1470, 1998). A 2 μg portion of the membrane sample was incubated together with [^3H]-arginine vasopressin (to be referred simply to as “[^3H]-vasopressin” hereinafter) (0.5 nM, specific activity=75 Ci/mmol) and each compound to be tested (10^−10 to 10^−5 M) at 25° C. for 60 minutes in 250 μl in total volume of 50 mM Tris-HCl buffer (pH=7.4) containing 10 mM MgCl2 and 0.1% bovine serum albumin (BSA). Thereafter, free [^3H]-vasopressin and receptor-bonded [^3H]-vasopressin were separated using a cell harvester, and the receptor-bonded [^3H]-vasopressin was adhered onto a uni-filter plate GF/B glass filter. After sufficient drying, this was mixed with a microplate scintillation cocktail, amount of the receptor-bonded [^3H]-vasopressin was measured using top count and the inhibition ratio was calculated by the following formula. Inhibition ratio(%)=100−(C1−B1)/(C0−B1)×100 C1: Amount of [^3H]-vasopressin bonded to the membrane sample when [^3H]-vasopressin and the receptor membrane sample are treated in the coexistence of test compound having known concentration C0: Amount of [^3H]-vasopressin bonded to the membrane sample when [^3H]-vasopressin and the receptor membrane sample are treated in the absence of test compound B1: Amount of [^3H]-vasopressin bonded to the membrane sample when [^3H]-vasopressin and the receptor membrane sample are treated in the coexistence of excess amount of vasopressin (10^−6 M)
Concentration of each test compound by which the inhibition ratio becomes 50% (IC50 value) was calculated by the aforementioned formula, and affinity of the test compound for the receptor, namely dissociation constant (Ki), was calculated from this by the following formula. Dissociation constant(Ki)=IC50/(1+[L]/Kd) [L]: Concentration of [^3H]-vasopressin Kd: Dissociation constant of [^3H]-vasopressin against the receptor obtained by a saturation binding test

CYP2C9 = CYP2C9 (Homo sapiens, UniProt P11712); test: Cytochrome P450 (2C9) Enzyme Inhibition Test; format: in vitro ADME; settings: substrate 7-methoxy-4-(trifluoromethyl)cumarin, 37° C. 45 minutes; read-out: CYP2C9 inhibitory activity IC50
Description: (§1) Using a 96 well plate, 7-benzyloxy-4-(trifluoromethyl)cumarin as the substrate (5×10^−5 M), each test compound (from 4.9×10^−8 to 5×10^−5 M) and the enzyme (5×10^−9 M) were incubated at 37° C. for 30 minutes in 200 μl in total volume of 200 mM phosphate buffer (pH=7.4) containing 8.2 μM NADP+, 0.41 mM glucose-6-phosphate, 0.41 mM MgCl2 and 0.4 units/ml glucose-6-phosphate dehydrogenase. Thereafter, the reaction was stopped by adding 0.5 M 2-amino-2-hydroxymethyl-1,3-propanediol aqueous solution containing 80% acetonitrile, and the fluorescence intensity (excitation wavelength; 409 nm, fluorescence wavelength; 530 nm) was measured using a fluorescence plate reader. The inhibition ratio was calculated based on the following formula, and concentration of each test compound by which the inhibition ratio becomes 50% (IC50) was obtained. Inhibition ratio (%)=100−(C1−B1)/(C0−B1)×100 C1: Fluorescence intensity in the presence of test compound having known concentration, enzyme and substrate C0: Fluorescence intensity in the absence of test compound and in the presence of enzyme and substrate B1: Fluorescence intensity of blank well (5) Cytochrome P450 (2C9) Enzyme Inhibition Test
(§2) This test was carried out in accordance with the method of Crespi et al. (Analytical Biochemistry, 248, 188-190, 1997).
Using a 96 well plate, 7-methoxy-4-(trifluoromethyl)cumarin as the substrate (7.5×10^−5 M), each test compound (from 4.9×10^−8 to 5×10^−5 M) and the enzyme (10^−8 M) were incubated at 37° C. for 45 minutes in 200 μl in total volume of 200 mM phosphate buffer (pH=7.4) containing 8.2 μM NADP+, 0.41 mM glucose-6-phosphate, 0.41 mM MgCl2 and 0.4 units/ml glucose-6-phosphate dehydrogenase. Thereafter, the reaction was stopped by adding 0.5 M 2-amino-2-hydroxymethyl-1,3-propanediol aqueous solution containing 80% acetonitrile, and the fluorescence intensity (excitation wavelength; 409 nm, fluorescence wavelength; 530 nm) was measured using a fluorescence plate reader. The inhibition ratio was calculated based on the same formula of aforementioned (4), and concentration of each test compound by which the inhibition ratio becomes 50% (IC50) was obtained.

CYP3A4 = CYP3A4 (Homo sapiens, UniProt P08684); test: Cytochrome P450 (3A4) Enzyme Inhibition Test; format: in vitro ADME; settings: substrate 7-benzyloxy-4-(trifluoromethyl)cumarin, 37° C. 30 minutes; read-out: CYP3A4 inhibitory activity IC50
Description: (4) Cytochrome P450 (3A4) Enzyme Inhibition Test
as §2, §1

male Wistar rats = test: Antidiuretic Test (Intravenous Administration); format: in vivo; settings: rat, 0.3 mg/kg intravenous, water loading 30 ml/kg 15 minutes later; for Urine excretion ratio (%) After 1 hour: urine until 1 hour; for Urine excretion ratio (%) After 2 hours: urine until 2 hours
Description: (2) Antidiuretic Test (Intravenous Administration)
Five animals per group of male Wistar rats (10 to 12 weeks of age) were used in the test. The compound of Example 3 was intravenously administered to group A at a dose of 0.3 mg/kg, and the compound of Example 9 to group B at a dose of 0.3 mg/kg, both after dissolving in a solvent (physiological saline containing DMSO), and the solvent alone at a dose of 1 ml/kg to group C as a control, and then 30 ml/kg of distilled water was orally administered by force 15 minutes thereafter (water loading). Urine samples until 2 hours after the water loading were collected using a metabolism cage, and the amount of urine when the water loading amount was defined as 100% was calculated as the urine excretion ratio. In this connection, average value of the urine excretion ratio until after 1 hour and the urine excretion ratio until after 2 hours in each group was used in the evaluation.

Sequence of CYP2C9 (P11712 whole entry): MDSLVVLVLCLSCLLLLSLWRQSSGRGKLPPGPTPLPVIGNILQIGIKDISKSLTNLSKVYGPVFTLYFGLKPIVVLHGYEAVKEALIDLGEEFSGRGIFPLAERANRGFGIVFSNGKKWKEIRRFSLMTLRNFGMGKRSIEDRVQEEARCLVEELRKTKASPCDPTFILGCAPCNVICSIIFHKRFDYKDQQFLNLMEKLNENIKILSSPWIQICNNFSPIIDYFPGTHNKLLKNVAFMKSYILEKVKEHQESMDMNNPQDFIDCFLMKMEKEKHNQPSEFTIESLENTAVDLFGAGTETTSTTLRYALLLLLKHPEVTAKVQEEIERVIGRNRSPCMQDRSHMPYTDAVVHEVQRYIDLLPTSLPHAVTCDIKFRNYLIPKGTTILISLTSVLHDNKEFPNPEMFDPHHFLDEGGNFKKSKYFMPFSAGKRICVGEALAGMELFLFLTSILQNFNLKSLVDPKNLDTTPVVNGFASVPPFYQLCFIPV
T1 sequence (P30518 whole entry): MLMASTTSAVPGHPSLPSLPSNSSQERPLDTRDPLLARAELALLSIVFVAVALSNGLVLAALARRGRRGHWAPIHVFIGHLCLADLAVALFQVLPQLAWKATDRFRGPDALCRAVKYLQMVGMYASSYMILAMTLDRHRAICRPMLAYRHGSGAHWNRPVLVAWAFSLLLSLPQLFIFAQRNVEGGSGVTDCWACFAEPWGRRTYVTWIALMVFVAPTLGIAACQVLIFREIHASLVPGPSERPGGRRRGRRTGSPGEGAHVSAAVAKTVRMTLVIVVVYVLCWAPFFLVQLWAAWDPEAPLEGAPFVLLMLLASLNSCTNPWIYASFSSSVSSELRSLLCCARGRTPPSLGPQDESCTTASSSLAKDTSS
Sequence of CYP3A4 (P08684 whole entry): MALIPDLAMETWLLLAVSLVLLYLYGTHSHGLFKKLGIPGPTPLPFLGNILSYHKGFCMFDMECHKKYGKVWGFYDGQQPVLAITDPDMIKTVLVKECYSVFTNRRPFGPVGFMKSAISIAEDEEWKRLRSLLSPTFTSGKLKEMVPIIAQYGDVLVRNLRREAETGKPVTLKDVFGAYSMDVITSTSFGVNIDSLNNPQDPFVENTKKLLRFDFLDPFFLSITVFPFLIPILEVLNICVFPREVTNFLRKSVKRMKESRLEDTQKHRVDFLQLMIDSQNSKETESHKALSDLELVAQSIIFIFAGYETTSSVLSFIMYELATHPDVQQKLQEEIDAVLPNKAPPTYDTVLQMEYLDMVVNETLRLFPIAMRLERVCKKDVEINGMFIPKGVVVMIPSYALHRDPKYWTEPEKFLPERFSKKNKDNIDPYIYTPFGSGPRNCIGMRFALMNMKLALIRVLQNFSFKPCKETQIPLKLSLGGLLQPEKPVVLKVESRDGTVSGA

SMILES | Ki (human V2 receptor) | IC50 (CYP2C9) | IC50 (CYP3A4) | Urine excretion ratio (%) After 1 hour (male Wistar rats) | Urine excretion ratio (%) After 2 hours (male Wistar rats)
CCCN(C)c1ccc(C(=O)N2CCC(F)(F)/C(=C\C(=O)NCC(N)=O)c3ccccc32)c(C(F)(F)F)c1 [Example 14] | 18 nM |  |  |  | 
CC(C)NC(=O)C[C@H]1CCCN(C(=O)c2ccc(N3CCCC3)cc2Cl)c2ccccc21 [Comparative compound, 2-[(5R)-1-(2-chloro-4-pyrrolidin-1-ylbenzoyl)-2,3,4,5-tetrahydrobenzazepin-5-yl]-N-isopropylacetamide, reference compound] |  | < 91 nM | < 91 nM |  | 
C[C@@H](F)COc1ccc(C(=O)N2CCC(F)(F)/C(=C\C(=O)NCCO)c3cc(F)ccc32)c(C(F)(F)F)c1 [Example 55, (2Z)-N-(2-hydroxyethyl)-2-{4,4,7-trifluoro-1-[4-{[(2R)-2-fluoropropyl]oxy}-2-(trifluoromethyl)benzoyl]-1,2,3,4-tetrahydro-5H-1-benzazepin-5-ylidene}acetamide] | 16 nM |  |  |  | 
CCCOc1ccc(C(=O)N2CCC(F)(F)/C(=C\C(=O)NCC(N)=O)c3cc(Cl)ccc32)c(C(F)(F)F)c1 [Example 24] | 4.3 nM |  |  |  | 
CC(F)(F)COc1ccc(C(=O)N2CCC(F)(F)/C(=C\C(=O)NCCO)c3ccccc32)c(C(F)(F)F)c1 [Example 51, (2Z)-2-{1-[4-(2,2-difluoropropoxy)-2-(trifluoromethyl)benzoyl]-4,4-difluoro-1,2,3,4-tetrahydro-5H-1-benzazepin-5-ylidene}-N-(2-hydroxyethyl)acetamide] |  | 34000 nM | > 50000 nM |  | 
C[C@@H](F)COc1ccc(C(=O)N2CCC(F)(F)/C(=C\C(=O)NCCC(N)=O)c3cc(F)ccc32)c(C(F)(F)F)c1 [Example 134, 3-[((2Z)-2-{4,4,7-trifluoro-1-[4-{[(2R)-2-fluoropropyl]oxy}-2-(trifluoromethyl)benzoyl]-1,2,3,4-tetrahydro-5H-1-benzazepin-5-ylidene}acetyl)amino]propanamide] | 12 nM |  |  |  | 
NC(=O)CNC(=O)/C=C1/c2ccccc2N(C(=O)c2ccc(OCC3CC3)cc2C(F)(F)F)CCC1(F)F [Example 3] | 11 nM | > 50000 nM | > 50000 nM | 1.3% | 6.2%
CCCCOc1ccc(C(=O)N2CCC(F)(F)/C(=C\C(=O)NCC(N)=O)c3ccccc32)c(C(F)(F)F)c1 [Example 9] | 19 nM | 11000 nM | 13000 nM | 0% | 5.3%
C[C@@H](F)COc1ccc(C(=O)N2CCC(F)(F)/C(=C\C(=O)NC[C@H](O)CO)c3ccccc32)c(C(F)(F)F)c1 [Example 130, (2Z)-2-{4,4-difluoro-1-[4-{[(2R)-2-fluoropropyl]oxy}-2-(trifluoromethyl)benzoyl]-1,2,3,4-tetrahydro-5H-1-benzazepin-5-ylidene}-N-[(2S)-2,3-dihydroxypropyl]acetamide] |  | > 50000 nM | > 50000 nM |  | 
CCCOc1ccc(C(=O)N2CCC(F)(F)/C(=C\C(=O)Nc3cccc(O)c3)c3ccccc32)c(C(F)(F)F)c1 [Example 98] | 6.2 nM |  |  |  | 
CCCOc1ccc(C(=O)N2CCC(F)(F)/C(=C\C(=O)NCCO)c3cc(F)ccc32)c(C(F)(F)F)c1 [Example 46] | 5.8 nM |  |  |  | 
C[C@H](F)COc1ccc(C(=O)N2CCC(F)(F)/C(=C\C(=O)NCCO)c3cc(F)ccc32)c(C(F)(F)F)c1 [Example 54, (2Z)-N-(2-hydroxyethyl)-2-{4,4,7-trifluoro-1-[4-{[(2S)-2-fluoropropyl]oxy}-2-(trifluoromethyl)benzoyl]-1,2,3,4-tetrahydro-5H-1-benzazepin-5-ylidene}acetamide] | 17 nM | 43000 nM | > 50000 nM |  | 
C[C@@H](F)COc1ccc(C(=O)N2CCC(F)(F)/C(=C\C(=O)NCC(N)=O)c3cc(F)ccc32)c(C(F)(F)F)c1 [Example 31, (2Z)-N-(2-amino-2-oxoethyl)-2-{4,4,7-trifluoro-1-[4-{[(2R)-2-fluoropropyl]oxy}-2-(trifluoromethyl)benzoyl]-1,2,3,4-tetrahydro-5H-1-benzazepin-5-ylidene}acetamide] | 10 nM |  |  |  | 
C[C@@H](F)COc1ccc(C(=O)N2CCC(F)(F)/C(=C\C(=O)NC[C@@H](O)CO)c3cc(F)ccc32)c(C(F)(F)F)c1 [Example 136, (2Z)-N-[(2R)-2,3-dihydroxypropyl]-2-{4,4,7-trifluoro-1-[4-{[(2R)-2-fluoropropyl]oxy}-2-(trifluoromethyl)benzoyl]-1,2,3,4-tetrahydro-5H-1-benzazepin-5-ylidene}acetamide] | 11 nM | > 50000 nM | > 50000 nM |  | 
